Experiments:
[1] = tested on: Gloeophyllum trabeum (ATCC 11539); assay: Soil block decay test (AWPA E10-87), brown rot; type: cell-based
Excerpt: (§1) Wood flakeboard was manufactured by conventional wood processing techniques, incorporating various borates at a range of concentrations, from 0.5 to 2.0% boric acid equivalent (BAE). Boric acid (H3BO3) equivalent is a commonly used convention for comparing various borates on an equivalent contained-boron basis. For each borate/loading combination, fifteen pounds of aspen (Populus tremuloides) furnish having an average particle size of about 2.5×0.75×0.025 inches, was blended with 0.75 pounds (5%) Rubinate 1840 (product of ICI), a polymeric methylene diphenyl diisocyanate adhesive, 0.11 pounds (0.75%) of Cascowax EW 403HS (product of Borden) and various concentrations of nine test borates. For each borate/loading combination, three 18″×18″ composite boards of 0.5 inch thickness were formed by pressing for 210 seconds at (180 seconds pressure, 30 seconds pressure release) at 204.5° C. (the pressure was kept in excess of 6000 psi during the pressure cycle). Each board was trimmed to 15″×15″ and cut to produce internal bond and analytical/soil block specimens for evaluation. Replicates were cut from the inner portion of the boards. Four internal bond, two leaching panels and twenty analytical/soil block specimens were cut from each board.
(§2) The panels to be leached (4.5″×4.5″) were edge sealed with an epoxy sealant and leached for two weeks. Leaching began with pressure treatment of the specimens with water for 30 minutes under vacuum and one hour under pressure. The specimens were removed from the pressure treatment chamber and the residual water was changed after two hours, then daily for the remainder of the leaching period. Afterward, they were trimmed to remove the sealed edges and cut into analytical/soil block test samples. Unleached and leached analytical/soil block samples for each board type were separately randomized. Fifteen were analyzed for borate content and ten were retained for the soil block decay test.
(§3) The soil block test was conducted in accordance with AWPA E10-87, with the exception that soil block dimensions were 1.0″×1.0″×0.5″. The fungi used were Gloeophyllum trabeum (ATCC 11539) for brown rot test and Trametes versicolor (MAD 697) for white rot test. An untreated composite control was run both unleached and leached. Solid southern yellow pine and birch were also run as unleashed controls against G. trabeum and T. versicolor, respectively as a test of fungal vigor.

[2] = tested on: Trametes versicolor (MAD 697); assay: Soil block decay test (AWPA E10-87), white rot; type: cell-based
Excerpt: as §1, §2, §3

[3] = Borate content of composite after two weeks water leaching; type: physicochemical; details: leached two weeks
Experimental: as §2

[4] = Bulk solids flow testing, J. R. Johanson Indicizer System; type: physicochemical
Excerpt: Bulk solids flow testing was done using the J. R. Johanson Indicizer System, including a Hang-up Indicizer and Hopper Indicizer, manufactured by J R Johanson, Inc. 712 Fiero Lane #37, San Luis Obispo, Calif. 93401. The test procedures are described in detail in their company literature (BULK SOLIDS INDICES TESTING, Hang-up Indicizer™ Instruction Manual ©JR Johanson, Inc. 1991 and BULK SOLIDS INDICES TESTING, Hopper Indicizer™ Instruction Manual ©JR Johanson, Inc. 1991). The results are presented in the following Table 3 as the Arching Index, Ratholing Index, Hopper Index and Chute Index, which are the average of several tests (3-6). The meaning and usefulness of these flow indices in evaluating the flow properties of bulk solids are also described in literature from JR Johanson, Inc., including Binside Scoop™, Vol. 7, No. 2, Fall 1994, Binside Scoop™, Vol. 8, No. 3, Winter 1995, and “Bulk solids Flow Indices—A Simplified Evaluation system”, by Jerry R. Johanson, ©JR Johanson, 1991.
Arching Index—A tendency of a cohesive material is to plug up the opening of a bin by forming an “arch” over the discharge opening. The arching index is given as a multiple of the discharge opening, so less than 1 is necessary for free flow. Numbers greater than 1 reflect a need to enlarge the opening.
Ratholing Index—A tendency of a cohesive material is to hang up on the sides of a bin while an open hole forms in the center and flow ceases. Rathole indices are also given as a multiple of the discharge opening and a number of less than 1 is necessary for free flow. Numbers greater than 1 mean the bins should be redesigned.
Hopper Index—The maximum angle, measured in degrees from the vertical, that is required for the conical portion of a hopper in order to produce reliable mass flow. A larger number is better.
Chute Index—The minimum angle, measured in degrees from horizontal, required for flow down a chute and to prevent material buildup at impact areas. A smaller number is better. Chute indices may often be close to the angle of repose.
Both hopper and chute indices measurements involve friction over a specified surface and measurements are made using substrates of the material of construction. The substrates used for these tests are 304-2B Stainless Steel, aged carbon steel and Tivar UHMWPE (ultra high molecular weight polyethylene) plastic.

[5] = leached two weeks, target loading 0.5% BAE (0.09% B)
[6] = leached two weeks, target loading 1.0% BAE (0.17% B)
[7] = leached two weeks, target loading 2.0% BAE (0.35% B)
[8] = unleached aspen flakeboard, target loading 0.5% BAE (0.09% B)
[9] = unleached aspen flakeboard, target loading 1.0% BAE (0.17% B)
[10] = unleached aspen flakeboard, target loading 2.0% BAE (0.35% B)
[11] = target loading 0.5% BAE (0.09% B)
[12] = target loading 1.0% BAE (0.17% B)
[13] = target loading 2.0% BAE (0.35% B)
[14] = multiple of the discharge opening, less than 1 necessary for free flow, average of 3-6 tests, Glass Grade

| Compound | Mean % Wt. Loss G. trabeum [1, 5] [%] | Mean % Wt. Loss G. trabeum [1, 6] [%] | Mean % Wt. Loss G. trabeum [1, 7] [%] | Mean % Wt. Loss G. trabeum [1, 8] [%] | Mean % Wt. Loss G. trabeum [1, 9] [%] | Mean % Wt. Loss G. trabeum [1, 10] [%] | Mean % Wt. Loss T. versicolor [2, 5] [%] | Mean % Wt. Loss T. versicolor [2, 6] [%] | Mean % Wt. Loss T. versicolor [2, 7] [%] | Mean % Wt. Loss T. versicolor [2, 8] [%] | Mean % Wt. Loss T. versicolor [2, 9] [%] | Mean % Wt. Loss T. versicolor [2, 10] [%] | Assay % B [3, 11] [% B] | Assay % B [3, 12] [% B] | Assay % B [3, 13] [% B] | further results |
| --- | --- | --- | --- | --- | --- | --- | --- | --- | --- | --- | --- | --- | --- | --- | --- | --- |
| Ulexite | 6.6 | 1.0 | 1.3 | 1.4 | 0.8 | 1.8 | 22.3 | 11.0 | 7.2 | 13.9 | 3.4 | 3.0 | 0.03 | 0.08 | 0.11 |  |
| Colemanite [Colemanite (1)] | 5.5 | 1.5 | 1.0 | 0.6 | 1.0 | 1.5 | 27.5 | 8.4 | 2.5 | 3.9 | 3.7 | 2.4 | 0.03 | 0.07 | 0.19 | Comparison with zinc borate against G. trabeum ([1]; after leaching): roughly comparable to zinc borate; Comparison with zinc borate against T. versicolor ([2]; after leaching): roughly comparable to zinc borate; Hopper Index Stainless Steel ([4]; 304-2B Stainless Steel, maximum angle from the vertical, larger is better, Glass Grade): 14 degrees; Chute Index Stainless Steel ([4]; 304-2B Stainless Steel, minimum angle from horizontal, smaller is better, Glass Grade): 76 degrees; Hopper Index Plastic ([4]; Tivar UHMWPE plastic, maximum angle from the vertical, larger is better, Glass Grade): 8 degrees; Chute Index Plastic ([4]; Tivar UHMWPE plastic, minimum angle from horizontal, smaller is better): 90 degrees; Hopper Index Carbon Steel ([4]; aged carbon steel, maximum angle from the vertical, larger is better, Glass Grade): 3 degrees; Chute Index Carbon Steel ([4]; aged carbon steel, minimum angle from horizontal, smaller is better, Glass Grade): 82 degrees; Arching Index [4, 14]: 0.7; Ratholing Index [4, 14]: 4.7 |
| Hydroboracite | 9.4 | 4.2 | 1.8 | 1.1 | 1.0 | 2.2 | 27.1 | 21.0 | 4.5 | 2.8 | 3.6 | 2.2 | 0.05 | 0.06 | 0.13 |  |
| O=BOB=O [Boric Oxide (4m), Boric Oxide, reference compound] | 15.5 | 7.4 | 3.0 | 2.6 | 1.4 | 1.7 | 34.3 | 29.5 | 9.5 | 7.5 | 9.0 | 2.9 | 0.02 | 0.04 | 0.09 |  |
| Gowerite | 7.4 | 5.8 | 3.1 | 0.9 | 0.9 | 1.3 | 24.7 | 14.7 | 11.8 | 5.5 | 3.1 | 2.6 | 0.04 | 0.07 | 0.09 |  |
| O=BOB=O [Boric Oxide (60m), Boric Oxide, reference compound] | 8.0 | 6.0 | 3.3 | 1.6 | 0.7 | 1.1 | 50.4 | 35.8 | 23.2 | 7.6 | 3.6 | 3.7 | 0.02 | 0.03 | 0.07 |  |

— patent US6368529B1, “Lignocellulosic composite” (U.S. Borax Inc., priority 2000, dated 2002)
